Reference: US20160303127A1, “COMBINATION THERAPY WITH C-MET AND EGFR ANTAGONISTS” (Genentech, Inc., priority 2008, published 2016)
Where “and” joins values, the source holds several entries; their conditions need not be identical. Equal entries are not always repeated.

Assays:
[1] = target: T1, c-met (Homo sapiens, UniProt P08581, DEL964-1010); assay: c-met phosphorylation in NCI-H596 hu-HGF-Tg-SCID xenograft tumors (IP/immunoblot); format: in vivo, mouse xenograft; conditions: MetMAb 30 mg/kg 24 h, erlotinib 150 mg/kg 6 h prior to harvest, average of 5 animals
T1 construct: endogenous in cells; host or cells: NCI-H596 (human NSCLC) cells grown as xenograft tumours in hu-HGF-Tg-SCID mice; tumour lysate, IP and immunoblot
Experimental: Tumors were allowed to grow to 200-300 mm^3 prior to treatment. Dosing was performed as described in Table 8. Briefly, MetMAb (30 mg/kg) or MetMAb buffer was dosed at time zero hours (0 hr) and methylcellulose tween vehicle (MCT) or erlotinib (150 mg/kg) was dosed at time 18 hours (18 hr). Mice were euthanized and tumors and plasma collected at time 24 hours (24 hr). Tumors were snap frozen in liquid nitrogen and then kept at −70° C. until they were processed for immunoprecipitation and immunoblotting.
Immunoprecipitations and Immunoblotting: To process tumors for protein analysis, tumors were first homogenized using a glass dounce with lysis buffer (Cell Signaling Technology, Inc., Danvers, Mass.), supplemented with 1 mM PMSF, additional protease inhibitor cocktail, and phosphatase inhibitor cocktail I and II (Sigma, Inc., St. Louis, Mo.). Lysates were incubated on ice for one hour and then centrifuged at 14,000×g for five minutes and supernatants collected. Protein concentrations were determined using the BCA™ Protein Assay Kit (Pierce, Inc., Rockford, Ill.) and samples were immunoblotted. […] For direct Western blots, 50 μg of tumor lysate was loaded per lane. Samples were then analyzed by SDS-PAGE and immunoblotting. […] Goat-anti-mouse-IRdye800 (Rockland Immunochemicals, Inc., Gilbertsville, Pa.) and goat-anti-rabbit-AlexaFluor680 (Molecular Probes, Inc., Eugene, Oreg.) were used as secondary antibodies. Immunoblots were imaged and phospho-protein levels were quantified and normalized to total protein levels (e.g. pEGFR over total EGFR) using an Odyssey imager (LI-COR Biosciences, Lincoln, Nebr.).
Twenty hu-HGF-Tg-SCID mice were inoculated with NCI-H596 cells and tumors established, as previously described. Once tumors reached sizes between 200-300 mm^3, mice were evenly grouped into four groups based upon tumor volume and dosing was begun (Table 8). MetMAb was dosed 24 hours prior to tumor harvest whereas erlotinib was dosed 6 hours prior to harvest. Dosing times were selected based on the relative half-life of each therapeutic agent. […]

[2] = system: NCI-H596 tumors; assay: Combination efficacy of MetMAb with erlotinib in the NCI-H596 hu-HGF-Tg-C3H-SCID xenograft model; format: in vivo; conditions: NCI-H596 tumors in hu-HGF-Tg-C3H-SCID mice, MetMAb 30 mg/kg IP once, erlotinib 150 mg/kg PO QD x2 weeks; for reduction in tumor growth compared to the vehicle control: day 20
Experimental: Test Material. Anti-c-met monovalent monoclonal antibody MetMAb (rhuOA5D5v2) was provided by the Antibody Engineering Department at Genentech, Inc., in a clear liquid form at 10.6 mg/ml. The vehicle was 10 mM histidine succinate, 4% trehalose dihydrate, 0.02% polysorbate 20, pH 5.7. Erlotinib (TARCEVA™) was provided by OSI Pharmaceuticals to the Pharmaceutics Department at Genentech and was weighed out along with a sufficient amount of vehicle (methylcellulose tween (MCT)). All material was shipped from Genentech, Inc. to the Van Andel Research Institute (VARI; Grand Rapids, Mich.) and was formulated prior to animal treatments. Materials were stored in a refrigerator set to maintain a temperature range of 4° C. to 8° C. The NCI-H596 cell line was obtained from American Type Culture collection (Manassas, Va.).
Species. Forty human HGF transgenic C3H-SCID mice (hu-HGF-Tg-C3H-SCID) were obtained from the in-house colony at the Van Andel Research Institute (VARI; Grand Rapids, Mich.). Five C3H-SCID mice were obtained from Jackson Laboratories. Animals were 4-6 weeks old and weighed 21-22 grams each. Mice were acclimated to study conditions for at least three days prior to tumor cell inoculations. Mice were housed in a shower-in barrier facility. Animals were housed in ventilated caging systems in rooms with filters supplying High-Efficiency Particulate Air (HEPA). Only animals that appeared to be healthy and were free of obvious abnormalities were used for the study.
Study design. As most HGF responsive tumors are driven in a paracrine fashion, a xenograft model that models paracrine driven growth was selected. Mouse HGF is a poor ligand for human c-met leading to a low biological response of human c-met expressing cells lines to mouse HGF (Bhargava, M., et al., 1992; Rong, S., et al., 1992). […]
The NCI-H596 cell line bears a mutated form of the c-met gene lacking exon 14 that encodes a binding site for the E3 ubiquitin ligase Cbl (Kong-Beltran, M., 2006). […] The responsiveness of NCI-H596 can also be seen in vivo, as the cell line readily form tumors in HGF-Tg-SCID mice (expressing human HGF, as noted above), but will not form tumors in immunocompromised mice lacking human HGF (nu/nu nude mice or SCID mice). […]
NCI-H596 cells were cultured in growth media that consisted of RPMI 1640 media (Invitrogen), 2 mM L-glutamine, and 10% fetal bovine serum. […] A subset of cells was counted by trypan blue exclusion and the remainder of the cells was resuspended in 100 μl of sterile 1× PBS to a concentration of 5×10^6 cells per milliliter.
Mice were prepared for inoculation by shaving the dorsal area with clippers. […] Tumors were monitored until they reached a mean volume of 100 mm^3. […]

## C#Cc1cccc(Nc2ncnc3cc(OCCOC)c(OCCOC)cc23)c1 [erlotinib, N-(3-ethynylphenyl)-6,7-bis(2-methoxyethoxy)-4-quinazolinamine]
[1]
  pMet/total Met (c-met phosphorylation): did not reduce c-met phosphorylation
[1]; listed as Erlotinib
  pMet/total Met (c-met phosphorylation): 157 (±103.4) % of vehicle control
[2]
  reduction in tumor growth compared to the vehicle control: statistically insignificant reduction
  mean time to tumor doubling (TTD): 9.5 (±1.2) days

B1: MetMAb: Anti-c-met monovalent monoclonal antibody MetMAb (rhuOA5D5v2) (WO2007/063816) (antibody, chains of the INN, looked up, V domains shown)
VH: EVQLVESGGGLVQPGGSLRLSCAASGYTFTSYWLHWVRQAPGKGLEWVGMIDPSNSDTRFNPNFKDRFTISADTSKNTAYLQMNSLRAEDTAVYYCATYRSYVTPLDYWGQGTLVTVSS
VL: DIQMTQSPSSLSASVGDRVTITCKSSQSLLYTSSQKNYLAWYQQKPGKAPKLLIYWASTRESGVPSRFSGSGSGTDFTLTISSLQPEDFATYYCQQYYAYPWTFGQGTKVEIK
modifications: one-armed
[1]
  pMet/total Met (c-met phosphorylation): 12% (+/−3.6%) % of vehicle control and 12 (±3.5) % of vehicle control
[2]
  reduction in tumor growth compared to the vehicle control: 67%
  mean time to tumor doubling (TTD): 17.8 (±2.2) days
